Results: US20240199557A1, “METHODS OF MAKING 1-BENZYL-4-PHENYL-1H-1,2,3-TRIAZOLE (BPT) AND BPT COATED STRUCTURES” (BOARD OF REGENTS, THE UNIVERSITY OF TEXAS SYSTEM, priority 2022, published 2024)

How the values were obtained:
[1] = Linear polarization resistance (LPR): corrosion rate and inhibitor efficiency of steel rebar in synthetic pore solution
From the text: (§1) The steel cylinder working electrode (WE) were cross-sectioned and encased in epoxy. The surface was polished using 120 grit to 600 grit SiC paper, resulting in an exposed area of 0.499±0.01 cm^2. A Pt mesh was used as the counter electrode (CE). In terms of the reference electrodes (RE), a Saturated Calomel Electrode (SCE) was used for solutions with chloride and a Mercury Mercurous Sulfate Electrode (MSE) for solutions without chloride, satisfying the electrochemical cell requirements of ASTM standard G5 [38]. Though the experiments without chlorides were measured with MSE, the results were converted to SCE.
(§2) The WE, RE, and CE were placed in a test cell containing a synthetic pore solution (SPS). This SPS mimics the concrete pore environment and followed a formula consisting of 8.33 g/L NaOH+23.3 g/L KOH+2.0 g/L Ca(OH)2 (pH:13.6). These solutions were prepared using deionized water from a Milli-Q Water Purification System (resistivity: 18.2-18.7 MΩ·cm) and analytically pure grade reagents.
The testing procedure involved an initial pH measurement of the solution followed by purging the cell with CO2-free air (300 cc/min or more) for 5 minutes, prior to introducing the WE and throughout the experiment to reduce the effects of carbonation. More details can be found elsewhere. 2 M NaCl was chosen for the experiments since previously tested concentrations were not able to break the passive film generated in this highly alkaline environment. After chloride addition, the electrolyte was stirred for 4 h, while continuing to purge with CO2-free air. Then stirring stopped and purging was continued for 20 h to allow for passivation of the substrate. […]
The results of the LPR measurements for the different conditions tested are presented in FIG. 3 as CR, which was determined using an estimated Stem-Geary coefficient (B) of 26 mV (corroding bars) and Rp values calculated, all following ASTM G59 [72, 73]. […]
The efficiency (IE, %) of the BPT was calculated using the CR results when Cl^− was added to the control solution (CRSPS) and solutions containing BPT (CRBPT), using Equation (1). […]

[2] = Stability/solubility of BPT in SPS and co-dissolvers; format: physicochemical
Description: Initial tests were run to find the stability/solubility of BPT in SPS. […] Several co-dissolvers were tested (ethyl alcohol 95%, isopropyl alcohol, acetone, dimethylsulfoxide, dimethylformamide, ethylenglycol, diethylenglycol, and 1-Methyl-2-pyrrolidinone), to aid in the solubility of the BPT in SPS. From these co-dissolvers, the organic compound N-methyl-2-pyrrolidone (NMP) performed the best and was selected at a concentration of 2.35 mg of BPT/mL of NMP (BPT saturated NMP solution).

[3] = Anodic cyclic polarization (CYP): pitting potential
From the text: as §1, §2
The testing procedure involved an initial pH measurement of the solution followed by purging the cell with CO2-free air (300 cc/min or more) for 5 minutes, prior to introducing the WE and throughout the experiment to reduce the effects of carbonation. More details can be found elsewhere. 2 M NaCl was chosen for the experiments since previously tested concentrations were not able to break the passive film generated in this highly alkaline environment. After chloride addition, the electrolyte was stirred for 4 h, while continuing to purge with CO2-free air. Then stirring stopped and purging was continued for 20 h to allow for passivation of the substrate. […] This procedure is similar to ASTM G180 [41]. The difference is related to the use of SPS instead of a cement slurry. Using a Gamry Reference 600+Potentiostat, different electrochemical tests were performed including open circuit potential (OCP), linear polarization resistance (LPR) and Anodic Cyclic Polarization (CYP).
LPR tests were performed from −0.030 V to +0.030 V from OCP, with a scan rate of 0.167 mV/s, in accordance with ASTM G59. CYP ran at a scan rate of 0.167 mV/s, beginning at 0.030 V more negative than the OCP with a maximum i of 1 mA/cm^2. Tests were performed to verify that pitting was occurring and not crevice corrosion occurred during CYP. After each experiment, the specimen was rinsed with D.I. water, degreased with ethanol, and dried. Surface images were taken using BX53 Olympus microscope to evaluate the corrosion morphology. […]
It is observed that for all conditions evaluated the passive film on the steel was formed, but the pitting potential (Ep) changed, being higher with the increase in BPT concentration (Table 3).

[4] = A36 mild steel, 1M HCl, 298 K; 2.311 mm/year without inhibitor; cited from earlier work
[5] = XRD quantitative phase analysis of carbon steel discs after immersion
Description: Four 3 mm height discs were cut from […] diameter steel rebar and one of their flat faces was polished using silicon carbide sandpaper with 250, 400 and, 600 grit. Subsequently each disc was immersed for 90 seconds in 10 mL of a freshly prepared Clarke solution [42], rinsed thoroughly with water, acetone and dried under a soft stream of dry N2. The crystalline structure of the samples was analyzed on their sheeny face employing X-Ray powder diffraction (XRD) using a Bruker D8 Advance Eco diffractometer applying Cu-Kα1,2 radiation. All samples were scanned at 40 kV and 25 mA in the […] of 31-66° and 2.0 s of step time per 2θ=0.019°. The crystalline planes used to perform the quantitative phase analysis (QPA) are for iron at 2θ=44.6°; [2,0,0] for lepidocrocite at 2θ=47.4° and, [2,2,0] for goethite at 2θ=33.6°.
Subsequently, each one of the discs was immersed in a solution with the composition as described on Table 5 and their surfaces were analyzed using XRD four weeks later. The diffraction patterns are shown in FIG. 9 and the quantitative phase analysis (QPA) data is given on Table 6.

stability in SPS ([2]; alkaline solution (SPS, pH 13.6)): stable in the alkaline solution
concentration of BPT saturated NMP solution ([2]; in N-methyl-2-pyrrolidone (NMP)): 2.35 mg of BPT/mL of NMP
solubility in water ([2]; water): unable to dissolve in water
Ep (pitting potential) ([3]; 1 mM BPT in SPS, 2M NaCl): 149.25 mV vs. SCE
Ep (pitting potential) ([3]; 2 mM BPT in SPS, 2M NaCl): 404.04 mV vs. SCE
Ep (pitting potential) ([3]; 3 mM BPT in SPS, 2M NaCl): 302.06 mV vs. SCE
Ep (pitting potential) ([3]; Adj. 3 mM BPT+NMP (hydroxide concentration adjusted to SPS), 2 M NaCl): 429.53±1.29 mV vs. SCE
Structure (SMILES): c1ccc(Cn2cc(-c3ccccc3)nn2)cc1 [BPT, 1-Benzyl-4-Phenyl-1H-1,2,3-triazole]
efficiency (IE, %) ([1]; 3 mM BPT in SPS with 2 M NaCl, calculated from CR by Equation (1)): 85.2%
concentrations at which BPT can inhibit the corrosion of carbon steel rebar ([1]; SPS with 2 M NaCl): higher than 2 mM
optimal concentration of BPT to inhibit corrosion on carbon steel rebar ([1]; SPS with 2 M NaCl): 3 mM
corrosion kinetics (corrosion rate) with BPT [4]: 0.429 mm/year
AFe/AGoe ([5]; SPS with NaCl in presence of BPT): 0
AFe/ALep ([5]; disc 4: SPS + 2M NaCl + NMP + 3 mM BPT, four-week immersion): 26,908
